# In US20030229027A1, “Stabilized natural cannabinoid formulation” (priority 2002, published 2003):
# Like-named read-outs stand apart in the source and are kept apart here.
# Legend:
# [1] = cited from earlier work; for Glass transition temperature: at dry conditions; for Tg / Tg′: comparison with inulin
# [2] = THC-analysis control experiments (degradation of THC in methanol); type: physicochemical
# [3] = Stability (no clouding) of water-alcohol solutions of inulin and THC; type: physicochemical; settings: 0.4% w/v THC
# Experimental: The suitable volume ratio of water/alcohol was investigated by testing the stability of 10% w/v inulin solutions with different ratio's water/alcohol. Inulin was dissolved in different amounts of water (3 to 7 mL). Subsequently different amounts of alcohol were added until a total volume of 10 mL. For THC the same procedure was followed, but now water was added to the alcoholic THC solution. The solution was judged as sufficiently stable if no clouding appeared within the time of processing. For spray drying batches were made which required up to half an hour of spraying. Therefore the solution should be clear for at least that period of time. For freeze drying the solution should be clear until it is frozen. In this case ten minutes is sufficient. Furthermore, it was investigated whether the aqueous inulin solution could be added slowly or should be mixed instantaneously.
# The three relevant alcohol's were added to a solution of inulin in water. It was determined for how long the obtained solution stayed clear. After 1 g of inulin was dissolved in 4 mL water, water and/or alcohol was added to a total volume of 10 mL, yielding a 10% w/v solution. The largest concentration of alcohol was thus obtained. THC was dissolved in the alcohol of interest. Subsequently, alcohol and/or water was added to give 0.4% w/v solutions.
# [4] = Dynamic vapour sorption (gravimetric sorption analyser); type: physicochemical; settings: after exposure to 90% RH
# Experimental: Water sorption isotherm of freeze dried inulin was measured at ambient pressures and 25° C. using a gravimetric sorption analyser (DVS-1000 Water Sorption Instrument, Surface Measurement Systems Limited, London, UK). The uptake of water by inulin was measured from 0% to 90% RH with steps of 10% RH. The initial sample weight was about 10 mg. It was assumed that equilibrium was reached when the change of weight was less than 0.9 μg during a ten minutes period.
# The water sorption of THC was determined according to the procedure described above for inulin. The THC was dissolved in methanol before it was put in the DVS-1000 instrument. During initial exposure to a dry nitrogen flow, the methanol was evaporated. As soon as about 90% of the solvent was evaporated, additional THC solution was added to the sample-cup. This procedure was repeated until 15 mg of pure THC was present in the sample cup. After the evaporation of the last methanol, the relative humidity was increased from 0% to 90% in steps of 10%.
# [5] = Modulated DSC, thermal behavior of THC; type: physicochemical; settings: mDSC thermogram of THC
# Experimental: The thermal behavior of THC was determined by mDSC. A modulation amplitude of ±0.318° C. every 60 sec and a heating rate of 2° C./min was used. During measurement, the sample cell was purged with nitrogen at a flow rate of 35 mL/min. A blob of pure THC was put in the sample cup. After initial cooling the sample was first scanned till 50° C. In this way the blob was able to spread over the entire bottom of the sample pan, thereby increasing the surface available for heat transfer during the second scan. The sample was then cooled until −40° C. and heated to 350° C.
# [6] = Solubility of THC in water; settings: 20 °C, thermodynamic from solid, stirred 3 days
structure (smiles),measurement,setting,value
"OC[C@@H](O)[C@@H](O[C@H]1O[C@H](CO)[C@@H](O)[C@H](O)[C@H]1O)[C@H](O)[C@@H](O)CO [Maltitol, maltitol]",Glass transition temperature,[1],44 °C
"CCCCCc1cc(O)c2c(c1)OC(C)(C)[C@@H]1CCC(C)=C[C@@H]21 [THC, Δ^9-tetrahydrocannabinol]",Degradation of THC calibration solutions,"[2]; solutions in methanol, 2 weeks at 4° C.",no significant degradation
same,Degradation of THC by ultrasonic treatment,[2]; ten minutes ultrasonic treatment in methanol,no degradation
same,Degradation of THC during extraction,[2]; two days of extraction in methanol,no significant degradation
same,% v/v water for a stable solution,[3]; EtOH (ethanol),≤ 53% maximum % v/v
same,% v/v water for a stable solution,[3]; TBA (t-butanol),≤ 63% maximum % v/v
same,% v/v water for a stable solution,[3]; n-PrOH (n-propanol),≤ 62% maximum % v/v
same,Water absorbed,[4],0.3%
same,Onset of endothermic peak (evaporation),[5],200 °C
same,Tg,[5],10 °C
same,solubility at 3 days,[6],< 1 µg/mL
OC[C@@H](O)[C@@H](O[C@@H]1O[C@H](CO)[C@H](O)[C@H](O)[C@H]1O)[C@H](O)[C@@H](O)CO [lactitol],Glass transition temperature,[1],33 °C
OC[C@H]1O[C@@](CO)(O[C@H]2O[C@H](CO)[C@@H](O)[C@H](O)[C@H]2O)[C@@H](O)[C@@H]1O [sucrose],Tg,[1],76 °C
same,Tg′,[1],−39 °C
OC[C@H]1O[C@H](O[C@H]2O[C@H](CO)[C@@H](O)[C@H](O)[C@H]2O)[C@H](O)[C@@H](O)[C@@H]1O [trehalose],Tg,[1],120 °C
same,Tg′,[1],−36 °C
